Where two headings read alike, the source gives them in different places.
What was measured:
Assay in all cases: Efficacy screening assay
Type in all cases: cell-based
A2780 = conditions: A2780, ovary
Procedure: (§1) The experiment was performed by Oncolead GmbH & Co. KG (Karlsfeld , Germany), based on a standardized screening procedure . Cell lines were purchased directly from the ATCC, NCI and DSMZ cell line c ollections. Cells used for the study had undergone less than 20 passages. To ensure the absence of potential contamination and wrong assignment, all cell lines were tested using a whole genome assay (Agilent, USA). All cell lines were grown as recommended by the suppliers and with addition of 100 U/mL penicillin G and 100 µg/mL; streptomycin. Cell growth and treatments were performed in Nunclon D 96 -well plates (NUNC, Germany). The optimal seeding density for each cell line was determined to ensure exponential growth for the duration of the experiment. All cells growing without anti-cancer agents were sub-conﬂuent by the end of the treatment, as determined by visual inspection.
(§2) After an initial 24 h pre-growth period, the compounds were added. The vehicle concentration […]
(§3) was 0.1% DMSO. After incubation at 37°C for 72 h, the culture medium was aspirated, and the cells were precipitated by the addition of 10% trichloroacetic acid (Sigma-Aldrich, Missouri, US). After overnight incubation at 4°C, the plates were washed three times with deionized water. The precipitates were then stained with SRB (0.4% wt/v sulforhodamine B solution in 1% acetic acid, Sigma-Aldrich, Missouri, US). Afterwards, the plates were washed six times with 1% acetic acid to remove unbound stain. After drying the plates at room temperature, the bound SRB was solubilized with 10 mM Tris base and the optical density was measured at 520 nm using a Victor2 plate reader (Perkin Elmer, Germany). Blank OD values were subtracted from mean OD values for each concentration. The nonlinear curve ﬁtting and EC50 calculations were per formed using XLﬁt and algorithm “205” (ID Business […]
(§4) one-way ANOVA and multiple comparison (Dunnett) was performed for compound treatments compared to vehicle control. The adjusted p-values with 95% confidence interval were reported as significant. For comparison of EC50 values in Figure 1F, one-way ANOVA with multiple comparison testing (Tukey) was performed. Multiplicity adjusted p -values for the EC50 with sorafenib versus resminostat for each cell line and comparison between cell lines for sorafenib are presented (95% confidence interval for significance testing). For comparison of EC50 data in Figure 2B, one-way ANOVA with multiple comparison testing (Tukey) was performed. Multiplicity adjusted p-values with 95% confidence interval was applied. For the invasion assays in Figure 4, one-way ANOVA with multiple comparison testing (Tukey) was performed. Multiplicity adjusted p-values with 95% confidence interval was applied. The adjusted p-values comparing vehicle control without vs. with platelets and compound

BXPC3 = conditions: BXPC3, pancreas
Procedure: as §1, §2, §3, §4

786O = conditions: kidney
Procedure: as §1, §2, §3, §4

22RV1 = conditions: 22RV1, prostate
Procedure: as §1, §2, §3, §4

A204 = conditions: A204, muscle
Procedure: as §1, §2, §3, §4

CAKI1 = conditions: CAKI1, kidney
Procedure: as §1, §2, §3, §4

CACO2 = conditions: CACO2, colon
Procedure: as §1, §2, §3, §4

ASPC1 = conditions: Homo sapiens, ASPC1, pancreas, 72 h
Procedure: as §1, §2, §3, §4

C33A = conditions: Homo sapiens, C-33-A, cervix, 72 h
Procedure: as §1, §2, §3, §4

PBMC = conditions: Non-cancer, healthy donors, 72 h
Procedure: C. Western blots for acetylated α-Tubulin, total α-Tubulin, p21 and GAPDH (loading control).
Cells were treated with vehicle control (0.1 % DMSO), 1 µM or 3 µM resminostat for 24 hours. Grouped blots were composed from cropped parts of individual blots for each antibody. Original blots with exposures and indicated cropped areas can be found in the supplementary information.
D. Cell line screen determining the EC50s of resminostat in 74 cell lines representing 14 different ca ncer indications. In addition, peripheral blood mononuclear cells (PBMCs) from healthy donors were tested. Each dot represents an EC50. […]
labelled fluorogenic peptide substrates: fluorogenic peptide from p53 residues 379-382 (RHKK(Ac)AMC) for HDAC1, 2, 3, 6, 10, 11; fluorogenic HDAC Class IIa Substrate (Trifluoro acetyl Lysine, Ac-LGK(TFA)-AMC) for HDAC 4, 5, 7, 9; and fluorogenic peptide from p53 residues 379-382 (RHK(Ac)K(Ac)AMC) for HDAC8. […] In a second step, the deacetylated products were digested by the addition of developer for 1 h at 30°C to produce the fluorescent signal proportional to the amount of deacetylated substrates and the fluorescence was measured using an Envision plate reader at 355 nm (excitation) and 460 nm (emission). A kinetic measurement was performed for ~1 h with 5 min intervals and d ata from the final time point were analysed. […]

[1] = log of EC50, negative, read-out: log(EC50) (converted)

In the case of `CN(C)Cc1ccc(S(=O)(=O)n2ccc(/C=C/C(=O)NO)c2)cc1` [resminostat, Resminostat], the EC50 (A2780; 72 h, read-out: EC50) is reported as 0.89 µM, the EC50 (A2780; Homo sapiens, A2780, 72 h, log of EC50, negative, read-out: log(EC50) (converted)) is reported as 0.891 µM and the EC50 (A2780; Homo sapiens, A2780, 72 h, read-out: EC50) is reported as 0.89 µM. The EC50 (BXPC3; 72 h, read-out: EC50) was 4.23 µM, the EC50 (BXPC3; Homo sapiens, BXPC-3, 72 h, log of EC50, negative, read-out: log(EC50) (converted)) was 4.27 µM and the EC50 (BXPC3; Homo sapiens, BXPC-3, 72 h, read-out: EC50) was 4.22 µM. For the same compound, the EC50 (786O; Homo sapiens, 786-0, 72 h, log of EC50, negative, read-out: log(EC50) (converted)) was 2.57 µM, the EC50 (786O; Homo sapiens, 786-0, 72 h, read-out: EC50) was 2.54 µM and the EC50 (786O; 72 h, read-out: EC50) was 2.54 µM. For the same compound, the EC50 (22RV1; 72 h, read-out: EC50) was 1.45 µM, the EC50 (22RV1; Homo sapiens, 22Rv1, 72 h, log of EC50, negative, read-out: log(EC50) (converted)) was 1.45 µM and the EC50 (22RV1; Homo sapiens, 22Rv1, 72 h, read-out: EC50) was 1.45 µM. The EC50 (A204; 72 h, read-out: EC50) was 0.91 µM, the EC50 (A204; Homo sapiens, A204, 72 h, log of EC50, negative, read-out: log(EC50) (converted)) was 0.912 µM and the EC50 (A204; Homo sapiens, A204, 72 h, read-out: EC50) was 0.906 µM. For the same compound, the EC50 (CAKI1; 72 h, read-out: EC50) was 3.27 µM, the EC50 (CAKI1; Homo sapiens, CAKI-1, 72 h, log of EC50, negative, read-out: log(EC50) (converted)) was 3.31 µM and the EC50 (CAKI1; Homo sapiens, CAKI-1, 72 h, read-out: EC50) was 3.27 µM. For the same compound, the EC50 (CACO2; 72 h, read-out: EC50) was 1.78 µM, the EC50 (CACO2; Homo sapiens, Caco-2, 72 h, log of EC50, negative, read-out: log(EC50) (converted)) was 1.78 µM and the EC50 (CACO2; Homo sapiens, Caco-2, 72 h, read-out: EC50) was 1.78 µM. It also gave an EC50 (ASPC1; [1]) of 1.66 µM, an EC50 (ASPC1; read-out: EC50) of 1.65 µM and an EC50 (C33A; [1]) of 1.55 µM. It also gave an EC50 (C33A; read-out: EC50) of 1.55 µM, an EC50 (PBMC; [1]) of 8.71 µM and an EC50 (PBMC; read-out: EC50) of 8.68 µM.
